Assay results from patent US20240309043A1, “THERAPEUTICALLY ACTIVE STEROIDAL DERIVATIVES” (Organon R&D Finland Ltd., priority 2017, published 2024).

Experiments:
Format in all cases: biochemical
[1] = target: T1, recombinant human 17β-HSD2 (Homo sapiens, UniProt P37059); assay: Inhibition of recombinant human 17β-HSD2; conditions: inhibitor 1 μM; 50 nM estradiol, 1 mM NADH, 30 min RT
T1 construct: made in house; host or cells: Sd9 (Sf9) insect cells, baculovirus (Bac to Bac Expression System)
T1 sequence (P37059 1-387): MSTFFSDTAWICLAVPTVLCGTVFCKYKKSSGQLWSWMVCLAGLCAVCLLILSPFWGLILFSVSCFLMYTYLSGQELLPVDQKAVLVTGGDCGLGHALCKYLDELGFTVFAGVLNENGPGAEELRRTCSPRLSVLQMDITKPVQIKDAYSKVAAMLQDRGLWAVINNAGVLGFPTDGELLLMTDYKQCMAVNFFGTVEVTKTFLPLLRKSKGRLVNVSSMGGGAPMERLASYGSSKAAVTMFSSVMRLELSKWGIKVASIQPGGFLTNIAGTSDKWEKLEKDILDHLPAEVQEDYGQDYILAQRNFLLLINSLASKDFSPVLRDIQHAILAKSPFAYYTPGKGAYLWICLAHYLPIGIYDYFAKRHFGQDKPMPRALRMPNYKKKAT
Experimental: 17β-HSD2 production and isolation: Similarly to 17β-HSD1 the Recombinant baculovirus was generated by the “Bac to Bac Expression System” (Invitrogen). Recombinant bacmid was transfected to Sd9 insect cells using “Cellfectin Reagent” (Invitrogen). 60 h later cells were harvested and supernatant were fractionated by the following protocol: • cells were dissolved into 40 ml of A-buffer (40 mM TRIS, pH 8.0, 20% glycerol, 20 μM NAD, 0.4 mM PMSF, 150 mM NaCl, 0.5% dodecyl-β-maltoside+protease inhibitor cocktail) • cells were sonicated • lysate was incubated on ice for 15 min • lysate was centrifuged 5000 rpm 15 min, +4° C. • centrifugation of the supernatant 180 000 g 30 min, +4° C. • pellet was dissolved into 8 ml of A-buffer • not resuspended material was removed by centrifugation 5000 rpm min, +4° C. • the clear supernatant was divided into 100 μl aliquots and were stored frozen until determination of enzymatic activity.
The amount of 17β-HSD2 was analysed by immunoblotting and total protein concentration of each extract batch was determined.
Assay—Inhibition of recombinant human 17β-HSD2: Recombinant protein (4 μg/ml) was incubated in 20 mM KH2PO4 pH 8.5 with 50 nM estradiol (including 800 000 cpm/ml of ^3H-estradiol) and 1 mM NADH for 30 min at RT, in the presence of the potential inhibitor at concentrations 1 μM or 0.1 μM. Inhibitor stock solutions were prepared in DMSO. Final concentration of DMSO was adjusted to 1% in all samples. The enzyme reaction was stopped by addition of 10% trichloroacetic acid (final concentration). Samples were centrifuged in a microtiter plate at 4000 rpm for 10 min. Supernatants were applied to reverse phase HPLC on a Waters Symmetry C18 column, equipped with a Waters Sentry Guard column. Isocratic HPLC runs were performed at RT at a flow rate of 1 ml/min in acetonitrile:water 48:52 as running solvent. Radioactivity was monitored in the eluate by a Scintillation Analyzer. Total radioactivity for estrone and estradiol were determined in each sample and percent conversion of estradiol to estrone was calculated according to the following formula:
(§1) [formula] Percent inhibition was calculated flowingly: % inhibition=100−% conversion

[2] = test system: HSD1 enzyme that is expressed in rabbit placenta tissue; assay: Inhibition of E1 to E2 conversion in rabbit placenta tissue homogenate; conditions: inhibitor 100 nM, 30 nM estrone, 30 min
Experimental: The assay is based on an enzymatic reaction where HSD1 enzyme that is expressed in rabbit placenta tissue converts its natural substance estrone (E1) to estradiol (E2) in the presence of a co-factor β-NADPH.
Homogenization of rabbit placenta tissue: Weight a piece of the frozen tissue into a Precellys ck28 bead tube. Add buffer solution (20 mM KH2PO4 with 1 mM EDTA, pH 7,4) in 1:2 ratio (e.g. 300 mg of tissue:600 μl reaction buffer solution). Insert the bead tubes to homogenizer and homogenize 2×30 s. 6000 rpm. Centrifugated 5 min., 2600 rpm at +4° C. and collect supernatant. Aliquots of homogenate are stored in −80° C.
Assay—Inhibition of E1 to E2 conversion in rabbit placenta tissue: The reaction takes place in a buffer solution (20 mM KH2PO4 with 1 mM EDTA, pH 7,4), including appropriate amount of rabbit placenta homogenate, co-factor (1 mM β-NADPH), Substrate (30 nM estrone), labelled substrate as tracer (5 nM [^3H]-estrone). During a 30-minute incubation part of the estrone is converted to estradiol. The reaction is stopped by lowering the pH to 1 with 10% trichloro acetic acid (TCA). The substrate and conversion products are analyzed by HPLC and a Scintillation counter analyzer. Total radioactivity for estrone and estradiol were determined in each sample and percent conversion of estrone to estradiol was calculated according to the following formula:
Percent inhibition was calculated flowingly: % inhibition=100−% conversion.

[3] = target: T2, recombinant human 17β-HSD1 (Homo sapiens, UniProt P14061); assay: Inhibition of recombinant human 17β-HSD1; conditions: inhibitor 100 nM; 30 nM estrone, 1 mM NADPH, 30 min RT
T2 construct: made in house; host or cells: Sd9 (Sf9) insect cells, baculovirus (Bac to Bac Expression System)
T2 sequence (P14061 1-328): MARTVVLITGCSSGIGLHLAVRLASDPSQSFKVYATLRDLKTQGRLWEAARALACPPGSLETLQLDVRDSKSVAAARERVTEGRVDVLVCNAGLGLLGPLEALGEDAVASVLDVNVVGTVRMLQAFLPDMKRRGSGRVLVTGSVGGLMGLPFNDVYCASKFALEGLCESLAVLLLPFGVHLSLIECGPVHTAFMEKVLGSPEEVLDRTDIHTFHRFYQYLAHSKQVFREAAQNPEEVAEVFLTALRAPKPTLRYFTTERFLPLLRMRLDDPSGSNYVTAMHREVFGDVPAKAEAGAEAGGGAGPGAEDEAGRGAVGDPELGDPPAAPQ
Experimental: 17β-HSD1 production and isolation: Recombinant baculovirus was generated by the “Bac to Bac Expression System” (Invitrogen). Recombinant bacmid was transfected to Sd9 insect cells using “Cellfectin Reagent” (Invitrogen). 60 h later cells were harvested; the microsomal fraction was isolated as described by Puranen, T. J., Poutanen, M. H., Peltoketo, H. E., Vihko, P. T. and Vihko, R. K. (1994) Site-directed mutagenesis of the putative active site of human 17 β-hydroxysteroid dehydrogenase type 1. Biochem. J. 304: 289-293. Aliquots were stored frozen until determination of enzymatic activity.
Assay—Inhibition of recombinant human 17β-HSD1: Recombinant protein (1 μg/ml) was incubated in 20 mM KH2PO4 pH 7.4 with 30 nM estrone (including 800 000 cpm/ml of ^3H-estrone) and 1 mM NADPH for 30 min at RT, in the presence of the potential inhibitor at concentrations 1 μM or 0.1 μM. Inhibitor stock solutions were prepared in DMSO. Final concentration of DMSO was adjusted to 1% in all samples. The enzyme reaction was stopped by addition of 10% trichloroacetic acid (final concentration). Samples were centrifuged in a microtiter plate at 4000 rpm for 10 min. Supernatants were applied to reverse phase HPLC on a Waters Symmetry C18 column, equipped with a Waters Sentry Guard column. Isocratic HPLC runs were performed at RT at a flow rate of 1 ml/min in acetonitrile:water 48:52 as running solvent. Radioactivity was monitored in the eluate by a Scintillation Analyzer. Total radioactivity for estrone and estradiol were determined in each sample and percent conversion of estrone to estradiol was calculated according to the following formula:
as §1

Row | Compound | inhibition at 1 µM [1] | Rabbit placenta inhibition % @100 nM [2] | inhibition at 0.1 µM [3]
1 | C[C@]12CCC3c4cccc(F)c4CCC3C1[C@H](CCC(=O)NC1COC1)C/C2=N\O (stereo partly drawn) [Compound 10, 3-((13S,15R,E)-4-fluoro-17-(hydroxyimino)-13-methyl-7,8,9,11,12,13,14,15,16,17-decahydro-6H-cyclopenta[a]phenanthren-15-yl)-N-(oxetan-3-yl)propanamide] | 5% | 18% | 30%
2 | CN(C(=O)CC[C@@H]1C/C(=N\O)[C@@]2(C)CCC3c4cccc(F)c4CCC3C12)C1COC1 (stereo partly drawn) [Compound 12, 3-((13S,15R,E)-4-fluoro-17-(hydroxyimino)-13-methyl-7,8,9,11,12,13,14,15,16,17-decahydro-6H-cyclopenta[a]phenanthren-15-yl)-N-methyl-(oxetan-3-yl)propanamide] | 2% |  | 73%
3 | C[C@]12CCC3c4cccc(F)c4CCC3C1[C@H](CCC(=O)N1CCCC1)C/C2=N\O (stereo partly drawn) [Compound 14, 3-((13S,15R,E)-4-fluoro-17-(hydroxyimino)-13-methyl-7,8,9,11,12,13,14,15,16,17-decahydro-6H-cyclopenta[a]phenanthren-15-yl)-1-(pyrrolidin-1-yl)propan-1-one] | 4% | 14% | 53%
4 | Cc1ccc(NC(=O)CC[C@@H]2C/C(=N\O)[C@@]3(C)CCC4c5cccc(F)c5CCC4C23)nn1 (stereo partly drawn) [Compound 16, 3-((13S,15R,E)-4-fluoro-17-(hydroxyimino)-13-methyl-7,8,9,11,12,13,14,15,16,17-decahydro-6H-cyclopenta[a]phenanthren-15-yl)-N-(6-methylpyridazin-3-yl) propanamide] | 9% | 81% | 79%
5 | C[C@]12CCC3c4cccc(F)c4CCC3C1[C@H](CCC(=O)Nc1nncs1)C/C2=N\O (stereo partly drawn) [Compound 18, 3-((13S,15R,E)-4-fluoro-17-(hydroxyimino)-13-methyl-7,8,9,11,12,13,14,15,16,17-decahydro-6H-cyclopenta[a]phenanthren-15-yl)-N-(1,3,4-thiadiazol-2-yl)propanamide] | 14% | 62% | 68%
6 | CCN(CC)C(=O)CC[C@@H]1C/C(=N\O)[C@@]2(C)CCC3c4cccc(F)c4CCC3C12 (stereo partly drawn) [Compound 24, N,N-diethyl-3-((13S,15R,E)-4-fluoro-17-(hydroxyimino)-13-methyl-7,8,9,11,12,13,14,15,16,17-decahydro-6H-cyclopenta[a]phenanthren-15-yl)propanamide] | 12% | 18% | 85%
7 | C[C@]12CCC3c4ccc(F)cc4CCC3C1[C@H](CCC(=O)Nc1ccc(F)cn1)C/C2=N\O (stereo partly drawn) [Compound 26, 3-((13S,15R,E)-3-fluoro-17-(hydroxyimino)-13-methyl-7,8,9,11,12,13,14,15,16,17-decahydro-6H-cyclopenta[a]phenanthren-15-yl)-N-(5-fluoropyridin-2-yl)propanamide] | 8% | 10% | 49%
8 | C[C@]12CCC3c4ccc(F)cc4CCC3C1[C@H](CCC(=O)Nc1cccnn1)C/C2=N\O (stereo partly drawn) [Compound 34, 3-((13S,15R,E)-3-fluoro-17-(hydroxyimino)-13-methyl-7,8,9,11,12,13,14,15,16,17-decahydro-6H-cyclopenta[a]phenanthren-15-yl)-N-(pyridazin-3-yl)propanamide] | 9% |  | 23%
9 | C[C@]12CCC3c4ccc(F)cc4CCC3C1[C@H](CCC(=O)Nc1nncs1)C/C2=N\O (stereo partly drawn) [Compound 38, 3-((13S,15R,E)-3-fluoro-17-(hydroxyimino)-13-methyl-7,8,9,11,12,13,14,15,16,17-decahydro-6H-cyclopenta[a]phenanthren-15-yl)-N-(1,3,4-thiadiazol-2-yl)propanamide] | 3% |  | 21%
10 | C[C@]12CCC3c4cccc(F)c4CCC3C1[C@H](CCC(=O)Nc1ccccn1)C/C2=N\O (stereo partly drawn) [Compound 138, 3-((13S,15R,E)-4-fluoro-17-(hydroxyimino)-13-methyl-7,8,9,11,12,13,14,15,16,17-decahydro-6H-cyclopenta[a]phenanthren-15-yl)-N-(pyridin-2-yl)propanamide] |  | 36% | 89%
11 | C[C@]12CCC3c4cccc(F)c4CCC3C1[C@H](CCC(=O)Nc1cc3c([nH]c1=O)CCCC3)C/C2=N\O (stereo partly drawn) [Compound 178, 3-((13S,15R,E)-4-fluoro-17-(hydroxyimino)-13-methyl-7,8,9,11,12,13,14,15,16,17-decahydro-6H-cyclopenta[a]phenanthren-15-yl)-N-(2-oxo-12,5,6,7,8-hexahydroguinolin-3-yl)propanamide] | 9% |  | 95%
